Data from US20240059652A1, “AMORPHOUS MELANOCORTIN RECEPTOR AGONIST AND METHOD FOR PREPARING SAME” (LG CHEM, LTD., priority 2020, published 2024).

Key:
Assay type in all cases: physicochemical
[1] = humidity stress experiment (stability of the amorphous compound in relative humidity chambers, XRD pattern analysed); settings: 5-7 days
Protocol: (§1) The following experiments were performed to evaluate the stability of the amorphous compound under various solvent vapours and controlled humidity conditions.
In addition, a humidity stress experiment was performed by placing about 25 mg of the amorphous compound of Example 1 in individual vials, storing the vials in an unsealed state in various relative humidity chambers (23% RH, 59% RH, 7% RH, 98% RH, 40° C./75% RH) for 5-7 days, and analyzing the XRD pattern.
(§2) The vapour stress and humidity stress experimental methods are methods used as methods for generating stable solvates or hydrates because, when a substance is exposed to vapours, a solid is plasticized, and molecular mobility is […]. However, for the amorphous compound of Example 1, the amorphous compound was maintained under various conditions according to the above experimental methods. Thus, it was confirmed that the amorphous compound was stable under the corresponding conditions.

[2] = vapour stress experiment (stability of the amorphous compound under solvent vapours, XRD pattern analysed); settings: 5-7 days; for Result / XRD: vapour stress
Protocol: as §1
A vapour stress experiment was performed by placing about 25 mg of the amorphous compound of Example 1 into an unsealed vial, placing the vial in a large sealed container containing 1 mL of the selected solvent, and after 5-7 days, analyzing the XRD pattern of the sample.
as §2

[3] = humidity stress experiment (stability of the amorphous compound in relative humidity chambers, XRD pattern analysed); settings: 75% RH stress, 5-7 days

**Q.** With `CC(C)C(=O)N([C@H]1C[C@@H](C(=O)N2CCOCC2)N(C(=O)[C@@H]2CN(C(C)(C)C)C[C@H]2c2ccc(Cl)cc2)C1)[C@H]1CC[C@@H](C)CC1` [Example 1, N-((3S,5S)-1-((3S,4R)-1-(tert-butyl)-4-(4-chlorophenyl)pyrrolidine-3-carbonyl)-5-(morpholine-4-carbonyl)pyrrolidin-3-yl)-N-((1s,4R)-4-methylcyclohexyl)isobutyramide] as the compound, how does the Result ([1]; 23% RH stress) read?
**A.** The Result was “Solid”.

**Q.** What about the XRD ([1]; 23% RH stress) of the same compound?
**A.** Its XRD is “Amorphous”.

**Q.** What about the Result ([1]; 40° C./75% RH stress) of the same compound?
**A.** Its Result is “Solid”.

**Q.** And the XRD ([1]; 40° C./75% RH stress)?
**A.** The XRD was “Amorphous”.

**Q.** What about the Result ([1]; 59% RH stress) of the same compound?
**A.** Its Result is “Solid”.

**Q.** And the XRD ([1]; 59% RH stress)?
**A.** The XRD was “Amorphous”.

**Q.** And the Result ([1]; 75% RH stress)?
**A.** The Result was “Solid”.

**Q.** What about the Result ([1]; 98% RH stress) of the same compound?
**A.** The Result was “Solid”.

**Q.** And the XRD ([1]; 98% RH stress)?
**A.** Its XRD is “Amorphous”.

**Q.** What about the “stability of the amorphous compound under humidity stress conditions” value ([1]; controlled humidity conditions) of the same compound?
**A.** The value was “stable”.

**Q.** What about the Result ([2]; 2-Me-THF) of the same compound?
**A.** The Result was “Solid”.

**Q.** And the XRD ([2]; 2-Me-THF)?
**A.** Its XRD is “Amorphous”.

**Q.** What about the Result ([2]; ACS) of the same compound?
**A.** Its Result is “Solid”.

**Q.** What about the XRD ([2]; ACS) of the same compound?
**A.** The XRD was “Amorphous”.

**Q.** What about the Result ([2]; Acetone) of the same compound?
**A.** Its Result is “Solid”.

**Q.** And the XRD ([2]; Acetone)?
**A.** The XRD was “Amorphous”.

**Q.** And the Result ([2]; Benzyl alcohol)?
**A.** Its Result is “Solid”.

**Q.** What about the XRD ([2]; Benzyl alcohol) of the same compound?
**A.** Its XRD is “Amorphous”.

**Q.** What about the Result ([2]; Chlorobenzene) of the same compound?
**A.** Its Result is “Solid”.

**Q.** What about the XRD ([2]; Chlorobenzene) of the same compound?
**A.** The XRD was “Amorphous”.

**Q.** And the Result ([2]; Chloroform)?
**A.** The Result was “Solid”.

**Q.** And the XRD ([2]; Chloroform)?
**A.** Its XRD is “Amorphous”.

**Q.** And the Result ([2]; DCM)?
**A.** The Result was “Solid”.

**Q.** And the XRD ([2]; DCM)?
**A.** The XRD was “Amorphous”.

**Q.** What about the Result ([2]; DME) of the same compound?
**A.** The Result was “Solid”.

**Q.** What about the XRD ([2]; DME) of the same compound?
**A.** The XRD was “Amorphous”.

**Q.** And the Result ([2]; DMSO)?
**A.** The Result was “Solid”.

**Q.** What about the XRD ([2]; DMSO) of the same compound?
**A.** Its XRD is “Amorphous”.

**Q.** What about the Result ([2]; Ethanol) of the same compound?
**A.** The Result was “Solid”.

**Q.** And the XRD ([2]; Ethanol)?
**A.** Its XRD is “Amorphous”.

**Q.** And the Result ([2]; Formamide)?
**A.** The Result was “Solid”.

**Q.** What about the XRD ([2]; Formamide) of the same compound?
**A.** The XRD was “Amorphous”.

**Q.** What about the Result ([2]; HFIPA) of the same compound?
**A.** Its Result is “Solid”.

**Q.** What about the XRD ([2]; HFIPA) of the same compound?
**A.** Its XRD is “Amorphous”.

**Q.** What about the Result ([2]; Heptane) of the same compound?
**A.** The Result was “Solid”.

**Q.** What about the XRD ([2]; Heptane) of the same compound?
**A.** The XRD was “Amorphous”.

**Q.** What about the Result ([2]; IPA) of the same compound?
**A.** Its Result is “Solid”.

**Q.** And the XRD ([2]; IPA)?
**A.** Its XRD is “Amorphous”.

**Q.** What about the Result ([2]; MEK) of the same compound?
**A.** Its Result is “Solid”.

**Q.** What about the XRD ([2]; MEK) of the same compound?
**A.** The XRD was “Amorphous”.

**Q.** And the Result ([2]; MeOH)?
**A.** The Result was “Solid”.

**Q.** What about the XRD ([2]; MeOH) of the same compound?
**A.** Its XRD is “Amorphous”.

**Q.** And the Result ([2]; NMP)?
**A.** Its Result is “Solid”.

**Q.** What about the XRD ([2]; NMP) of the same compound?
**A.** Its XRD is “Amorphous”.

**Q.** What about the Result ([2]; Nitromethane) of the same compound?
**A.** The Result was “Solid”.

**Q.** What about the XRD ([2]; Nitromethane) of the same compound?
**A.** Its XRD is “Amorphous”.

**Q.** What about the Result ([2]; Pyridine) of the same compound?
**A.** The Result was “Solid”.

**Q.** What about the XRD ([2]; Pyridine) of the same compound?
**A.** Its XRD is “Amorphous”.

**Q.** And the Result ([2]; THE)?
**A.** The Result was “Solid”.

**Q.** What about the XRD ([2]; THE) of the same compound?
**A.** The XRD was “Amorphous”.

**Q.** What about the Result ([2]; Water) of the same compound?
**A.** Its Result is “Solid”.

**Q.** What about the XRD ([2]; Water) of the same compound?
**A.** The XRD was “Amorphous”.

**Q.** And the “stability of the amorphous compound under vapour stress conditions” value ([2]; various solvent vapours)?
**A.** The value was “stable”.

**Q.** And the XRD [3]?
**A.** The XRD was “Amorphous”.
